Experimental findings from patent US20230201301A1 (priority 2020, published 2023) are described below.

This test deals with inflammatory cell-types in the lungs. Further details: species or system transgenic mice B6.Cg-Tg(K18-ACE2)2Prlmn/J. The settings on record: mouse, in vivo, ip.

Regarding LQEEDTGEYGCV (TLT-1 peptide) [LR12], the “CD4+ T cells in lungs vs vehicle” value is “no effect”, the “CD8+ T cells in lungs vs vehicle” value is listed as “no effect”, the “CD45+ cells in lungs vs vehicle” value is recorded as “decrease” and the “NK cells in lungs vs vehicle” value was “no effect”. Further, the “NKT cells in lungs vs vehicle” value was “lower number”, the “number of monocytes-derived macrophages in lungs vs vehicle” value is given as “lower”, the “number of neutrophils in lungs vs vehicle” value is listed as “lower” and the “total number of cells in lungs vs vehicle” value is listed as “did not differ”.
